# Assays:
# human opioid δ receptor = target: T1, human opioid δ receptor (Homo sapiens, UniProt P41143); experiment: Opioid receptor function test (Lance Ultra cAMP Kit), δ receptor; assay type: cell-based
# T1 construct: host or cells: CHO cells
# Protocol: (§1) Opioid Receptor Function Test
# (§2) The functional activities of the compounds provided by the present invention on the μ, δ, and κ opioid receptors were investigated.
# (§3) The test was performed by using Lance Ultra cAMP Kit (PerkinElmer) according to a method predetermined for the kit. In the evaluation of the agonistic activity, CHO cells expressing each of the human opioid receptors (δ, μ, and κ, accession numbers and catalog numbers are mentioned below) and 10 μM of each test compound were reacted for 30 minutes in an assay buffer (1× HBSS, […], pH 7.4, […] (isobutylmethylxanthine), 7.5% BSA) in the presence of forskolin. Subsequently, the cAMP detection reagent included in the kit was added, and 1 hour afterward, time-resolved fluorescence measurement was performed by using the EnVision plate reader (PerkinElmer). The test compounds and the control drugs (δ: SNC80, μ: DAMGO, κ: U-69593) were evaluated in a concentration range of 10^−12 to 10^−5 M, a dose-response curve of each test compound was obtained from the fluorescence values at 665 nm, and EC50 value and the Emax value were calculated. The Emax value was calculated as a ratio of the maximum reaction of the test compound to the maximum reaction of each control drug, which is taken as 100%.
# (§4) • δ: Catalog No. CT4607, Accession No. NM_000911.2 • μ: Catalog No. CT4605, Accession No. NM_000914 • κ: Catalog No. CT4606, Accession No. NM_000912 (ChanTest Corporation)
# C57BL/6N male mice = experiment: Mouse elevated plus maze test; assay type: in vivo; conditions: subcutaneous, 1 mg/kg, 30 minutes before test (FIG. 2)
# Protocol: Mouse Elevated Plus Maze Test
# For the test, 5 to 6 weeks old C57BL/6N male mice were used. On a plus maze apparatus consisting of a wall-less running route (open arm, width 6 cm, length 30 cm) and a running route with a wall (closed arm, width 6 cm, length 30 cm, height of wall 15 cm), and having a height of 40 cm, a mouse was put so as to be directed to the running route with a wall, and allowed to spontaneously enter into the plus maze. Each test substance was dissolved in saline or 0.005 N HCl in saline, and subcutaneously administered on the back 30 minutes before the start of the test. At the time of the start of the test, video recording with a video camera was started, the time at which the mouse entered into the plus maze is considered to be the start of the test, and exploratory behavior was recorded for 5 minutes. On the basis of the video image, staying times in the running routes were determined, and wall-less running route staying time ratio (%) was calculated.
# SD male rats = experiment: Rat cerebral infarction-induced overactive bladder model (cystometry); assay type: in vivo; conditions: for Pressure at the time of urination / Single urination amount / Static pressure / Urination interval: cumulative, Mean ± S.E. (n = 5)
# Protocol: Evaluation Using Rat Cerebral Infarction-Induced Overactive Bladder Model
# A transient middle cerebral artery occlusion model was prepared by using 8 weeks old SD male rats under isoflurane inhalation anesthesia. On the next day, the cervix was slightly cut open again under the isoflurane inhalation anesthesia, and a catheter for administration was fixed in the jugular vein, and led to the back. A cystometry operation was also performed, and the other end of a cannula inserted into the bladder was led to the back, and connected to a cannula swivel.
# On the day 4 after the cerebral ischemia operation, cystometry was performed under no anesthesia and with no restraint. Intravesical pressure was measured for the stable period, then a medium was intravenously administered, and the value of the pressure was measured over about 30 minutes as a value before test substance administration. Then, the test substance was cumulatively and intravenously administered from the lowest dose at intervals of about 30 minutes, and the value was measured for about 30 minutes after each administration. For the rats determined to show pollakiuria (urination interval was 10 minutes or shorter) in the measurement before the administration, static intravesical pressure, pressure at the time of urination, urination interval, and single urination amount were measured at each time point.
# Wistar male rats = experiment: Rat elevated plus maze test; assay type: in vivo; conditions: oral, 3 mg/kg, 2 hours before test (FIG. 6)
# Protocol: Rat Elevated Plus Maze Test
# Anxiolytic effects of the compounds provided by the present invention were investigated by the rat elevated plus maze test.
# For the test, 7 to 9 weeks old Wistar male rats were used. […] Each test substance was dissolved in a 4.5% aqueous solution of cyclodextrin, and orally administered 2 hours before the start of the test. The test data were automatically analyzed by using video image action analysis software (Smart3.0, PanLab S.L., PanLab), and wall-less running route staying time ratio (%) was calculated.
# human opioid μ receptor = target: T2, human opioid μ receptor (Homo sapiens, UniProt P35372); experiment: Opioid receptor function test (Lance Ultra cAMP Kit), μ receptor; assay type: cell-based
# T2 construct: host or cells: CHO cells
# T2 sequence (P35372 whole entry): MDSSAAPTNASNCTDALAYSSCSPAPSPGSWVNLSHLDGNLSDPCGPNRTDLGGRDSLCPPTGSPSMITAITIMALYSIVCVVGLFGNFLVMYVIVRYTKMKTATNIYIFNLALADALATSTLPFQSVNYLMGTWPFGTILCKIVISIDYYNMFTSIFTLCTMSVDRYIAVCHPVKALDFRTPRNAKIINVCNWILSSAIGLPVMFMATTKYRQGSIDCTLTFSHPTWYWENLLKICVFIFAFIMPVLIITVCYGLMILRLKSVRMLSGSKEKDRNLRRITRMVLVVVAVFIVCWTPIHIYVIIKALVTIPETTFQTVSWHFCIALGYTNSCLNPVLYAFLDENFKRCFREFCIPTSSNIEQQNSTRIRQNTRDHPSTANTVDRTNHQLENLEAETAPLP
# Protocol: as §1, §2, §3, §4
# T1 sequence (P41143 whole entry): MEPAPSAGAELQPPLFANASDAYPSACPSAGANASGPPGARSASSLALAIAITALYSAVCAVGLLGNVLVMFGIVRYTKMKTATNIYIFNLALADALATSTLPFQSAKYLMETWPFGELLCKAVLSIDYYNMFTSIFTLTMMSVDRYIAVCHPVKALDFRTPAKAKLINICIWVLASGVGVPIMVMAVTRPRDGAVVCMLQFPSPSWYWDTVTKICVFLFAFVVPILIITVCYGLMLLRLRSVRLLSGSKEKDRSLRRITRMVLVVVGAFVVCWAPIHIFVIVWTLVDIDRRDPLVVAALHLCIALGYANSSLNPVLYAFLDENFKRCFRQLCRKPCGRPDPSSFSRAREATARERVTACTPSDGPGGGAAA
smiles,measurement,setting,value
"O=C(c1cccc(=O)[nH]1)N1C[C@H]2C[C@@]34CC[C@@H]1[C@@H]2[C@@]31CCN(CC2CC2)[C@@H]4Cc2ccc(O)cc21 [Example 7, 6-((1S,3aR,5aS,6R,11bR,11cS)-14-(cyclopropylmethyl)-10-hydroxy-2,3,3a,4,5,6,7,11c-octahydro-1H-6,11b-(epiminoethano)-1,5a-methanonaphtho[1,2-e]indole-3-carbonyl)pyridin-2(1H)-one]",EC50,"human opioid δ receptor; CHO cells expressing human δ receptor, cAMP, in the presence of forskolin",< 3 nM
same,Emax,human opioid δ receptor; ratio to maximum reaction of control drug SNC80 taken as 100%,99%
same,wall-less running route staying time ratio,C57BL/6N male mice,significantly increased
same,Pressure at the time of urination,SD male rats; 0.01 mg/kg intravenous,42.9 ± 10.7 mmHg
same,Single urination amount,SD male rats; 0.01 mg/kg intravenous,0.310 ± 0.068 g
same,Static pressure,SD male rats; 0.01 mg/kg intravenous,9.5 ± 1.3 mmHg
same,Urination interval,SD male rats; 0.01 mg/kg intravenous,450.7 ± 76.9 s
same,Pressure at the time of urination,SD male rats; 0.1 mg/kg intravenous,42.8 ± 9.7 mmHg
same,Single urination amount,SD male rats; 0.1 mg/kg intravenous,0.403 ± 0.129 g
same,Static pressure,SD male rats; 0.1 mg/kg intravenous,9.6 ± 1.1 mmHg
same,Urination interval,SD male rats; 0.1 mg/kg intravenous,547.4 ± 122.5 s
same,effect on single urination amount (in words),SD male rats; 0.01 and 0.1 mg/kg intravenous,dose-dependently increasing tendency
same,effect on urination interval (in words),SD male rats; 0.01 and 0.1 mg/kg intravenous,dose-dependently increasing tendency
same,effect on pressure at the time of urination (in words),SD male rats; all the doses,did not affect
same,effect on static intravesical pressure (in words),SD male rats; all the doses,did not affect
same,wall-less running route staying time ratio,Wistar male rats,significantly increased
same,EC50,"human opioid μ receptor; CHO cells expressing human μ receptor, cAMP, in the presence of forskolin, read-out: μ receptor EC50 value",> 1 nM
same,Emax,human opioid μ receptor; ratio to maximum reaction of control drug DAMGO taken as 100%,10%

# Source: patent publication US11633392B2 (priority 2016, dated 2023)
